How the values were obtained:
human GPR41 = target: T1, human GPR41 (Homo sapiens, UniProt O14843); settings: membranes of HEK293T cells, human GPR41 + Go1α; FIG. 2-4
T1 sequence (O14843 1-346): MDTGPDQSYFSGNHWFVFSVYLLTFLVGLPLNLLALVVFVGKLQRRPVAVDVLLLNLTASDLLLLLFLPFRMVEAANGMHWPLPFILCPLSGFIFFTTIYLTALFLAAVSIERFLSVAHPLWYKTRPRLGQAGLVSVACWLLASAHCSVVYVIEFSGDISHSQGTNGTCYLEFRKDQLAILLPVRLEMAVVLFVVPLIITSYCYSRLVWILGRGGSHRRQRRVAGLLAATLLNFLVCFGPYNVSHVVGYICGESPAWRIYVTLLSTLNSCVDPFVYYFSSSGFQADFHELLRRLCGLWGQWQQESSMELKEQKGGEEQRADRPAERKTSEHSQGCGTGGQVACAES
Experimental: HEK293T cells (HEK293 cells stably expressing the SV40 large T-antigen) were maintained in DMEM containing 10% (v/v) foetal calf serum and 2 mM glutamine. Cells were seeded in 60 mm culture dishes and grown to 60-80% confluency (18-24 h) prior to transfection with pCDNA3 containing the relevant DNA species using Lipofectamine reagent. For transfection, 3 μg of DNA was mixed with 10 μl of Lipofectamine in 0.2 ml of Opti-MEM (Life Technologies Inc.) and was incubated at room temperature for 30 min prior to the addition of 1.6 ml of Opti-MEM. Cells were exposed to the Lipofectamine/DNA mixture for 5 h and 2 ml of 20% (v/v) newborn calf serum in DMEM was then added. Cells were harvested 48-72 h after transfection.
Plasma membrane-containing P2 particulate fractions were prepared from cell pastes frozen at −80° C. after harvest. All procedures were carried out at 4° C. Cell pellets were resuspended in 1 ml of 10 mM Tris-HCl and 0.1 mM EDTA, pH 7.5 (buffer A) and by homogenisation for 20 s with a polytron homogeniser followed by passage (5 times) through a 25-guage needle. Cell lysates were centrifuged at 1,000 g for 10 min in a microcentrifuge to pellet the nuclei and unbroken cells and P2 particulate fractions were recovered by microcentrifugation at 16,000 g for 30 min. P2 particulate fractions were resuspended in buffer A and stored at −80° C. until required. Protein concentrations were determined using the bicinchoninic acid (BCA) procedure (4) using BSA as a standard.
Assays were performed in 96-well format using a method modified from Wieland and Jakobs, 1994. Membranes (10 μg per point) were diluted to 0.083 mg/ml in assay buffer (20 mM HEPES, 100 mM NaCl, 10 mM MgCl2, pH7.4) supplemented with saponin (10 mg/l) and pre-incubated with 40 μM GDP. […] Non-specific binding was determined by the inclusion of 0.6 mM GTP. […] Plates were centrifuged at 1500 g for 5 min and bound [^35S]GTPγS was determined by scintillation counting on a Wallac 1450 microbeta Trilux scintillation counter.

rGPR41 [1] = target: T2, rGPR41 (Rattus norvegicus, UniProt B2GV46); assay: Yeast FUS1-lacZ/FUS1-HIS3 reporter assay, rGPR41 in S. cerevisiae MMY22 (Gpa1/Gαo), FDG substrate; assay type: cell-based; set-up: expressed in transfected cells; host or cells: S. cerevisiae MMY22 (A1, A5; Gpa1/Gαo integrated) or MMY11 + pRS314-Gpa1/Gαo (A4), transformed with p426GPD-rGPR41; settings: for EC50: read-out: Agonism @ rGPR41 Approx. EC50; for relative agonist activity at rGPR41 (in words): yeast MMY22, carboxylic acid series C1-C12, FIG. 8
T2 sequence (B2GV46 1-319): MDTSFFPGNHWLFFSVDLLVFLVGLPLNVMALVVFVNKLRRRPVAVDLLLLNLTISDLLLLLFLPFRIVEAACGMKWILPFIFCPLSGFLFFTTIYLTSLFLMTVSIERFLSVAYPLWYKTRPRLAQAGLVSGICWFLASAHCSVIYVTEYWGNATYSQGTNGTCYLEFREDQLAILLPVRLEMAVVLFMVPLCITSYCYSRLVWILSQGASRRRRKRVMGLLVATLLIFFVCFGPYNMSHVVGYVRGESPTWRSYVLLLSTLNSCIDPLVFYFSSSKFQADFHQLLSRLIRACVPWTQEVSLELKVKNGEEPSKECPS
Experimental: A study was carried out of the function of rGPR41 following expression in S. cerevisiae MMY22, which is a derivative of S. cerevisiae MMY11 containing a copy of the gene encoding the Gpa1/Gαo transplant chimera described above (in which the 5 C-terminal amino acids of Gpa1 are replaced with the 5 C-terminal amino acids of Gαo) integrated into the genome. To do this, a cassette comprising the GPA1 promoter, nucleotide sequence encoding Gpa1/Gαo, and the terminator was sub-cloned from pRS314-Gpa1/Gαo into the yeast integrating plasmid pRS304 (Sikorski and Hieter, 1989). The resulting plasmid pRS304-Gpa1/Gαo was transformed into MMY11 and integrated into the trp1 locus creating MMY22.
The rGPR41 expression construct described above, p462GPD-rGPR41 was introduced into MMY22 by transformation as described above. Four separate transformants were tested for reporter gene activation in response to propionate. Assays for FUS1-lacZ and FUS1-HIS3 induction were performed as described, except the β-galactosidase (lacZ) substrate fluorescein di-β-D-galactopyranoside (FDG) was used in place of CPRG, and 3-aminotriazole concentration was 5 mM. Also, black-walled 96-well microtitre plates were used, and fluorescence resulting from degradation of FDG to fluorescein due to β-galactosidase was determined using a Spectrofluor microtitre plate reader (Tecan)(excitation wavelength: 485 nm; emmision wavelength: 535 nm).
A series of carboxylic acids and other compounds related to propionate were tested for the ability to activate rGPR41. Experiments were performed as described above, using yeast cells of strain MMY22 transformed with rGPR41 expression plasmid p462GPD-rGPR41, except that the agonist propionate was replaced with one of a series of other compounds, which are listed in table 2 below.
(§1) In vivo assays of reporter gene induction were carried out by suspending MMY11 cells transformed as described above to a density of 0.02 OD600/ml in 200 μl SC-glucose (2%) medium lacking tryptophan, uracil and histidine. This medium was supplemented with 10 mM 3-aminotriazole and the β-galactosidase (lacZ) substrate chlorophenolred-β-D-galactopyranoside (CPRG; Boehringer Mannheim) to a concentration of 0.1 mg/ml. Additionally the medium was supplemented with various concentrations of the agonist ligand, propionate (sodium propionate, pH 7.0). To visualise the yellow to red colour change reaction occurring on degradation of CPRG due to β-galactosidase, the medium was buffered to pH 7 with 0.1 M sodium phosphate. The assay was conducted in flat-bottomed sterile 96-well microtitre plates. Plates were incubated for 24 hours at 30° C. without agitation, and absorbance at 570 nm was determined using a Spectrofluor microtitre plate reader (Tecan).

rGPR41 [2] = target: T2, rGPR41; assay: Yeast reporter assay, rGPR41 in MMY22, CPRG substrate (3-hydroxybutyrate study); assay type: cell-based; set-up: expressed in transfected cells; host or cells: S. cerevisiae MMY22 (A1, A5; Gpa1/Gαo integrated) or MMY11 + pRS314-Gpa1/Gαo (A4), transformed with p426GPD-rGPR41; settings: for agonism at rGPR41 (in words): FIG. 9
Experimental: A study was made of the agonism of rGPR41 by the naturally-occurring ketone body compound, 3-hydroxybutyrate. Experiments were performed as described above, using yeast cells of strain MMY22 transformed with rGPR41 expression plasmid p462GPD-rGPR41, except that the substrate CPRG was used. Also, the agonist propionate was replaced with 3-hydroxybutyrate (β-hydroxybutyrate), either as a racemic mix of both stereoisomers, or as purified enantiomers D-3-hydroxybutyrate, or L-3-hydroxybutyrate.
as §1

[3] = yeast MMY22 with p462GPD-rGPR41, FDG fluorescence, compounds as salt solutions buffered to pH 7.0

Molecule	Agonism @ rGPR41 Approx. EC50 (M) (rGPR41 [1]; [3])	also measured
CC(O)CC(=O)O (racemic) [DL-b-Hydroxybutyrate]	–	stimulation of [35S]GTPγS binding (human GPR41): elevate [^35S]GTPγS binding; EC50 (rGPR41 [1]; [3]): ~10000 µM; agonism at rGPR41 (in words) (rGPR41 [2]): agonist at rGPR41 with a potency similar or slightly less than acetate; lowest concentrations causing detectable activation of rGPR41 (threshold) (rGPR41 [2]; FIG. 9, listed as 3-hydroxybutyrate): approximately 1 mM
C=CCCC(=O)O [4-pentenoate]	–	EC50 (rGPR41 [1]; [3]): ~30 µM
CC(=O)CC(=O)O [Acetoacetate]	weak active	–
CC(C)=O [Acetone]	–	Agonism @ rGPR41 Approx. EC50 (M) (rGPR41 [1]; pH 7): Inactive
C[C@H](N)C(=O)O [Alanine]	Inactive	–
O=C1O[C@H]([C@@H](O)CO)C(O)=C1O [Ascorbate]	Inactive	–
CCCCCC(=O)O [Caproic C6 acid]	–	EC50 (rGPR41 [1]; [3]): ~30 µM
CCCCCCCC(=O)O [Caprylic C8 acid]	weak active	–
O=C(O)CC(O)(CC(=O)O)C(=O)O [Citrate]	Inactive	relative agonist activity at rGPR41 (in words) (rGPR41 [1]): either inactive or had very weak activities
C[C@@H](O)CC(=O)O [D-b-Hydroxybutyrate]	–	EC50 (rGPR41 [1]; [3]): ~10000 µM; agonism at rGPR41 (in words) (rGPR41 [2]): similarly active to the racemic mix DL-3-hydroxybutyrate
CCCCCCCCCC(=O)O [Decanoic C10 acid]	inactive/toxic	relative agonist activity at rGPR41 (in words) (rGPR41 [1]): inactive
O=CO [Formate]	–	Agonism @ rGPR41 Approx. EC50 (M) (rGPR41 [1]; pH 7): Weak active
O=C(O)/C=C/C(=O)O [Fumarate]	Inactive	relative agonist activity at rGPR41 (in words) (rGPR41 [1]): either inactive or had very weak activities
NCCCC(=O)O [GABA]	Inactive	–
N[C@@H](CCC(=O)O)C(=O)O [Glutamate]	Inactive	–
NCC(=O)O [Glycine]	Inactive	–
O=CC=O [Glyoxal]	–	Agonism @ rGPR41 Approx. EC50 (M) (rGPR41 [1]; pH 7): Toxic
O=CC(=O)O [Glyoxylic acid]	–	EC50 (rGPR41 [1]; [3]): ~50000 µM
CCCCCCC(=O)O [Heptanoic C7 acid]	–	EC50 (rGPR41 [1]; [3]): ~100 µM
CC(C)C(=O)O [Isobutyrate]	–	EC50 (rGPR41 [1]; [3]): ~30 µM
C[C@H](O)CC(=O)O [L-b-Hydroxybutyrate]	–	EC50 (rGPR41 [1]; [3]): ~10000 µM
CCCCCCCCCCCC(=O)O [Lauric C12 acid]	inactive/toxic	relative agonist activity at rGPR41 (in words) (rGPR41 [1]): inactive
CCCCC/C=C\C/C=C\CCCCCCCC(=O)O [Linoleic acid]	Toxic/Inactive	–
CN[C@H](CC(=O)O)C(=O)O [NMDA]	Inactive	–
CCCCCCCCC(=O)O [Nonanoic C9 acid]	inactive/toxic	relative agonist activity at rGPR41 (in words) (rGPR41 [1]): inactive
O=C(O)C(=O)O [Oxalate]	–	EC50 (rGPR41 [1]; [3]): ~3000 µM

Molecule	Agonism @ rGPR41 Approx. EC50 (M) (rGPR41 [1]; [3])	also measured
O=C(O)CC(=O)C(=O)O [Oxaloacetate]	Inactive	–
CCCCCC/C=C\CCCCCCCC(=O)O [Palmitoleic acid]	Toxic/inactive	–
CCCCC(=O)O [Pentanoate (n-valerate)]	–	relative agonist activity at rGPR41 (in words) (rGPR41 [1]): similarly or slightly more active than propionate; EC50 (rGPR41 [1]; [3]): ~3 µM
O=C(O)CCC(=O)O [Succinate]	Inactive	relative agonist activity at rGPR41 (in words) (rGPR41 [1]): either inactive or had very weak activities
O=C(O)C(O)C(O)C(=O)O (stereo not drawn) [Tartrate]	Inactive	–
O=C(O)C(F)(F)F [Trifluoroacetate]	weak active	–
CCCCCCCCCCC(=O)O [Undecanoic C11 acid]	inactive/toxic	relative agonist activity at rGPR41 (in words) (rGPR41 [1]): inactive
CC(N)=O [acetamide]	very weak active	–
CCC(O)C(=O)O (stereo not drawn) [alpha-hydroxybutyrate]	Inactive	–
O=C(O)c1ccccc1 [benzoate]	–	Agonism @ rGPR41 Approx. EC50 (M) (rGPR41 [1]; pH 7): Toxic
O=C(O)CO [glycolate]	weak active	–
CC(O)C(=O)O (stereo not drawn) [lactate]	Inactive	–
O=C(O)/C=C\C(=O)O [maleate]	Inactive	–
O=C(O)CC(=O)O [malonate]	Inactive	–
CS(=O)(=O)O [methylsulphonate]	Inactive	–
CCCC(=O)O [n-Butyrate]	–	EC50 (rGPR41 [1]; [3]): ~50 µM
O=C(O)c1cccnc1 [nicotinic acid]	–	Agonism @ rGPR41 Approx. EC50 (M) (rGPR41 [1]; pH 7): Inactive
CCCCCCCC/C=C\CCCCCCCC(=O)O [oleate]	Inactive	–
CCCCCCCCCCCCCCCC(=O)O [palmitate]	Inactive	–
CC(C)(C)C(=O)O [pivalic acid]	–	EC50 (rGPR41 [1]; [3]): ~500 µM
CC(=O)C(=O)O [pyruvate]	Inactive	–
CCCCCCCCCCCCCCCCCC(=O)O [stearate]	Inactive	–
C/C=C(\C)C(=O)O [tiglic acid]	Inactive	–
O=C(O)CCCO [γ-hydroxybutyrate]	–	EC50 (rGPR41 [1]; [3]): ~10000 µM
methyl-2-imidazoline	Toxic/inactive	–

— patent publication US20030113810A1, “Novel assay” (priority 2000, published 2003)
